This experiment concerns 966289-007-R4-J1-PDC complex spheroid viability. The experiment can be described thus: Anticancer human tumor 966289-007-R4-J1-PDC patient-derived pancreatic adenocarcinoma cell line growth inhibition [GQUAD]. The following applies: for viability, T/C: stronger effect = lower value. An excerpt:
DNA G-quadruplex Stabilizer Agents in Combinations in Complex Spheroids
A high-throughput screen of multi-cell type tumor spheroids was designed to identify active combinations of DNA G-quadruplex stabilizer agents and targeted small molecules. Complex spheroids include a stromal component modeled by human endothelial cells (HUVEC) and fibroblasts modeled by human mesenchymal stem cells (MSCs). The concentration ranges selected for each drug and investigational agent were based upon clinically achievable concentrations if the clinical Cmax of the agent was known.
Compounds. The drugs and investigational agents: pidnarulex (CX-5461; NSC782164), APTO-253 (NSC789042), BRACO-19 (NSC847499), peposertib (NSC802822), ceralasertib (NSC780249), elimusertib (NSC800525), camonsertib (NSC841442), AZD-1390 (NSC803789), olaparib (NSC753686), talazoparib (NSC767125), ART-558 (NSC835418), sotorasib (NSC818433), MRTX-1133 (NSC836407), SN-38 (NSC673596), topotecan (NSC609699), etoposide (NSC141540), doxorubicin (NSC123127), gemcitabine (NSC613327), 5-fluorouracil (NSC19893), paclitaxel (NSC125973), vemurafenib (NSC761431), panobinostat (NSC761190), R-306465 (JNJ-16241199; NSC773264), adavosertib (NSC754352), TP-3654 (NSC805149), carboplatin (NSC241240), KSQ-4279 (NSC840948), and staurosporine (NSC755774) were obtained from the National Cancer Institute (NCI) Developmental Therapeutics Program Chemical Repository (34). The FDA-approved anticancer drug set is available from the NCI Developmental Therapeutics Program. […] The stock solutions were prepared in dimethyl sulfoxide (DMSO, Sigma-Aldrich, St. Louis, MO, cat. D2650) at 800-fold the tested concentration and stored at -70 degrees C prior to their use. All drugs and investigational agents were tested over a range starting from a high concentration at or near the clinical Cmax and decreasing in half-log increments. If the clinical Cmax for an agent had not been determined, the highest concentration tested was 10 microM.
2.3 Cell Culture. All cells were maintained in an incubator at 37 degrees C and 5% CO2 with 95% humidity. The PDC lines were cultured according to standard operating procedures established by the NCI PDMR. All PDCs were thawed and cultured in Matrigel-coated flasks prepared with a working solution of 1X Ham's F-12 nutrient mix, without supplementation (Invitrogen, cat. 11765054), 100 U/mL penicillin-streptomycin (Invitrogen, cat. 15140122), and 2.5% Matrigel (Corning Inc., cat. 354248) for the first three passages. The 857933-349-R-J2-PDC line was cultured in 6C/Colon 1B media, which includes advanced DMEM/F-12 (Thermo Fisher Scientific, cat. 12634028), 10 mM HEPES (Thermo Fisher Scientific, cat. 15630080), 1X GlutaMAX supplement (Thermo Fisher Scientific, cat. 35050061), 0.1 mg/mL primocin (InvivoGen, cat. ant-pm-2), 10% defined fetal bovine serum, heat inactivated (HyClone Laboratories Inc., cat. SH30070.03HI), 50% L-WRN conditioned media (ATCC, cat. CRL-3276), 1.25 mM N-Acetyl-L-cysteine (Sigma-Aldrich, cat. A9165), 10 mM nicotinamide (Sigma-Aldrich, cat. N0636), 1X B-27 supplement (Thermo Fisher Scientific, cat. 17504044), 1X N-2 supplement (Thermo Fisher Scientific, cat. 17502048), 10 microM Y-27632 dihydrochloride (Tocris Bioscience, cat. 1254), and 50 ng/mL human EGF recombinant protein (Thermo Fisher Scientific, cat. PHG0311). The 485176-168-R4-J1-PDC line was cultured in Panc media, which includes all 6C/Colon 1B media components plus 100 ng/mL human FGF-10 (Thermo Fisher Scientific, cat. 100-26), 500 nM SB-431542 (Selleckchem, cat. S1067), and gastrin (Tocris, cat. 3006).
[…]

[1] abbreviates: curve of first compound, second compound 0.0316 µM.
The mark [2] stands for this setting: curve of first compound, second compound 0.1 µM.
[3] abbreviates: curve of first compound, second compound 0.316 µM.
[4] abbreviates: curve of first compound, second compound 1 µM.
Setting [5] is: curve of first compound, second compound 3.16 µM.
[6] abbreviates: curve of first compound, second compound 10 µM.
The mark [7] stands for this setting: second compound 0.0316 µM, first compound 0.0316 µM.
[8] abbreviates: second compound 0.0316 µM, first compound 0.1 µM.
The mark [9] stands for this setting: second compound 0.0316 µM, first compound 0.316 µM.
Setting [10] is: second compound 0.0316 µM, first compound 1 µM.
[11] abbreviates: second compound 0.0316 µM, first compound 3.16 µM.
[12] abbreviates: second compound 0.0316 µM, first compound 10 µM.
Setting [13] is: second compound 0.1 µM, first compound 0.0316 µM.
Setting [14] is: second compound 0.1 µM, first compound 0.1 µM.
[15] abbreviates: second compound 0.1 µM, first compound 0.316 µM.
The mark [16] stands for this setting: second compound 0.1 µM, first compound 1 µM.
The mark [17] stands for this setting: second compound 0.1 µM, first compound 3.16 µM.
Where [18] appears, read: second compound 0.1 µM, first compound 10 µM.
The mark [19] stands for this setting: second compound 0.316 µM, first compound 0.0316 µM.
The mark [20] stands for this setting: second compound 0.316 µM, first compound 0.1 µM.
Setting [21] is: second compound 0.316 µM, first compound 0.316 µM.
Where [22] appears, read: second compound 0.316 µM, first compound 1 µM.
The mark [23] stands for this setting: second compound 0.316 µM, first compound 3.16 µM.
Where [24] appears, read: second compound 0.316 µM, first compound 10 µM.
The mark [25] stands for this setting: second compound 1 µM, first compound 0.0316 µM.
Where [26] appears, read: second compound 1 µM, first compound 0.1 µM.
Where [27] appears, read: second compound 1 µM, first compound 0.316 µM.
Where [28] appears, read: second compound 1 µM, first compound 1 µM.
[29] abbreviates: second compound 1 µM, first compound 3.16 µM.
The mark [30] stands for this setting: second compound 1 µM, first compound 10 µM.
[31] abbreviates: second compound 3.16 µM, first compound 0.0316 µM.
[32] abbreviates: second compound 3.16 µM, first compound 0.1 µM.
Setting [33] is: second compound 3.16 µM, first compound 0.316 µM.
The mark [34] stands for this setting: second compound 3.16 µM, first compound 1 µM.
The mark [35] stands for this setting: second compound 3.16 µM, first compound 3.16 µM.
The mark [36] stands for this setting: second compound 3.16 µM, first compound 10 µM.
[37] abbreviates: second compound 10 µM, first compound 0.0316 µM.
[38] abbreviates: second compound 10 µM, first compound 0.1 µM.
Setting [39] is: second compound 10 µM, first compound 0.316 µM.
Where [40] appears, read: second compound 10 µM, first compound 1 µM.
The mark [41] stands for this setting: second compound 10 µM, first compound 3.16 µM.
Where [42] appears, read: second compound 10 µM, first compound 10 µM.

pIC50: −log10 of the molar value. Where “and” joins values, the source holds several entries; their conditions need not be identical. Equal entries are not always repeated. A value given as a limit tells only on which side of the number the result lay.

As a reminder, the pIC50 is the negative decadic logarithm of the IC50, by convention in mol/L. By viability, T/C is commonly meant the result in the treated group divided by that in the control group, in per cent.
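Note: spheroids exposed to the agents for seven days before readout.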
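Throughout, for viability, T/C: percent viability relative to DMSO vehicle control wells taken as 100%.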

As to `COc1cc(C2c3cc4c(cc3C(OC3OC5COC(C)OC5C(O)C3O)C3COC(=O)C23)OCO4)cc(OC)c1O` (stereo not given) + Cc1[nH]c2ccc(F)cc2c1-c1nc2c3cccnc3c3ncccc3c2[nH]1, the pIC50 is 6.49 under setting [1]; 6.56 under setting [2]; 6.51 under setting [3]; 6.52 under setting [4]; 6.60 under setting [5]; 6.66 under setting [6]. For the same molecule, the viability, T/C was 107% under setting [7]; 104% under setting [8]; 50.5% under setting [9]; 4.72% under setting [10]; 2.07% under setting [11]; 0.7% under setting [12]. The viability, T/C by setting is: under setting [13], 107%; under setting [14], 105%; under setting [15], 41.7%; under setting [16], 7.49%; under setting [17], 1.48%; under setting [18], 0.65%. Moreover, the viability, T/C under setting [19] was 102%; the viability, T/C under setting [20] was 112%; the viability, T/C under setting [21] is 49.2%; the viability, T/C under setting [22] was 7.18%; the viability, T/C under setting [23] is 1.57%; the viability, T/C under setting [24] is 0.55%. For the same molecule, the viability, T/C runs as follows: under setting [25], 99.4%; under setting [26], 110%; under setting [27], 48%; under setting [28], 7.65%; under setting [29], 1.61%; under setting [30], 0.65%. In addition, the viability, T/C is 108% under setting [31]; 99.6% under setting [32]; 37.6% under setting [33]; 6.91% under setting [34]; 2.31% under setting [35]; 0.77% under setting [36]. The viability, T/C runs as follows: under setting [37], 101%; under setting [38], 97.2%; under setting [39], 28.1%; under setting [40], 3.87%; under setting [41], 1.57%; under setting [42], 0.58%.

Regarding `O=C(c1cc(Cc2n[nH]c(=O)c3ccccc23)ccc1F)N1CCN(C(=O)C2CC2)CC1` + CN(C)c1ccc(Nc2c3ccc(NC(=O)CCN4CCCC4)cc3nc3cc(NC(=O)CCN4CCCC4)ccc23)cc1, the pIC50 was 5.31 under setting [1]; 5.30 under setting [2]; 5.31 under setting [3]; 5.29 under setting [4]; 5.43 under setting [5]; 5.71 under setting [6]. The viability, T/C is 106% under setting [7]; 104% under setting [8]; 110% under setting [9]; 105% under setting [10]; 74.2% under setting [11]; 9.57% under setting [12]. In addition, the viability, T/C runs as follows: under setting [13], 104%; under setting [14], 97.9%; under setting [15], 107%; under setting [16], 109%; under setting [17], 76.7%; under setting [18], 10.2%. For the same molecule, the viability, T/C was 100% under setting [19]; 103% under setting [20]; 101% under setting [21]; 108% under setting [22]; 75.1% under setting [23]; 9.35% under setting [24]. In addition, the viability, T/C by setting is: under setting [25], 99.7%; under setting [26], 99.3%; under setting [27], 104%; under setting [28], 109%; under setting [29], 79%; under setting [30], 8.19%. In addition, the viability, T/C is 105% under setting [31]; 104% under setting [32]; 101% under setting [33]; 107% under setting [34]; 57.4% under setting [35]; 6.49% under setting [36]. Further, the viability, T/C runs as follows: under setting [37], 102%; under setting [38], 103%; under setting [39], 104%; under setting [40], 95.7%; under setting [41], 15.6%; under setting [42], 3.36%.

As for `CC(C)(O)C1CCC(Nc2ccc3ncc(-c4cccc(C(F)(F)F)c4)n3n2)CC1` (stereo not given), the viability, T/C (compound 0.0316 µM) was 105% and 92.3% and 96.8%; the viability, T/C (compound 0.1 µM) was 100% and 95.3% and 106%; the viability, T/C (compound 0.316 µM) is 98.5% and 95.1% and 91.2%; the viability, T/C (compound 1 µM) is 93.8% and 90.5% and 107%; the viability, T/C (compound 3.16 µM) is 42.9% and 43.5% and 36.2%; the viability, T/C (compound 10 µM) was 75.9% and 49.8% and 33.1%. Moreover, where the note is “curve of compound”, the pIC50 was < 5.00 and 5.54 and 5.61.

Turning to `C#Cc1c(F)ccc2cc(O)cc(-c3ncc4c(N5CC6CCC(C5)N6)nc(OCC56CCCN5CC(F)C6)nc4c3F)c12` (stereo not given), the viability, T/C (compound 0.0316 µM) was 97.1% and 95.7%; the viability, T/C (compound 0.1 µM) is 112% and 91.4%; the viability, T/C (compound 0.316 µM) was 104% and 100%; the viability, T/C (compound 1 µM) is 102% and 97.3%; the viability, T/C (compound 3.16 µM) is 108% and 98.6%; the viability, T/C (compound 10 µM) was 113% and 95.9%. Moreover, under “curve of compound”, the negative logarithm of the IC50 (pIC50) was below 5.00.

Take `Cc1[nH]c2ccccc2c1CCNCc1ccc(/C=C/C(=O)NO)cc1`: the viability, T/C (compound 0.000999 µM) was 110% and 92.2% and 99.7%; the viability, T/C (compound 0.00316 µM) is 100% and 103% and 113%; the viability, T/C (compound 0.00999 µM) is 104% and 91% and 101%; the viability, T/C (compound 0.0316 µM) is 100% and 97.8% and 99.5%; the viability, T/C (compound 0.0999 µM) is 31.1% and 30.7% and 17.7%; the viability, T/C (compound 0.316 µM) is 4.6% and 4.59% and 3.46%. Further, the pIC50 (curve of compound) was 7.14 and 7.15 and 7.20.

Values taken from PubChem BioAssay AID2060488 (Molecular Pharmacology Branch, DTP, NCI, 2025).
